Test results: the kinase profiling compilation of Christmann-Franck et al. (2016)

Key:
BTK (human) = BTK (human) (UniProt Q06187); experiment: KINOMEscan competition binding; conditions: compound 10.0 µM
CDK16 (human) = CDK16 (human) (UniProt Q00536); experiment: KINOMEscan competition binding; conditions: compound 10.0 µM
CDK7 (human) = CDK7 (human) (UniProt P50613); experiment: KINOMEscan competition binding; conditions: compound 10.0 µM
CSNK2A1 (human) = CSNK2A1 (human) (UniProt P68400); experiment: KINOMEscan competition binding; conditions: compound 10.0 µM
CSNK2A2 (human) = CSNK2A2 (human) (UniProt P19784); experiment: KINOMEscan competition binding; conditions: compound 10.0 µM
DAPK1 (human) = DAPK1 (human) (UniProt P53355); experiment: KINOMEscan competition binding; conditions: compound 10.0 µM
DAPK2 (human) = DAPK2 (human) (UniProt Q9UIK4); experiment: KINOMEscan competition binding; conditions: compound 10.0 µM
DAPK3 (human) = DAPK3 (human) (UniProt O43293); experiment: KINOMEscan competition binding; conditions: compound 10.0 µM
HIPK1 (human) = HIPK1 (human) (UniProt Q86Z02); experiment: KINOMEscan competition binding; conditions: compound 10.0 µM
HIPK1 (human), sequence (Q86Z02 whole entry, looked up): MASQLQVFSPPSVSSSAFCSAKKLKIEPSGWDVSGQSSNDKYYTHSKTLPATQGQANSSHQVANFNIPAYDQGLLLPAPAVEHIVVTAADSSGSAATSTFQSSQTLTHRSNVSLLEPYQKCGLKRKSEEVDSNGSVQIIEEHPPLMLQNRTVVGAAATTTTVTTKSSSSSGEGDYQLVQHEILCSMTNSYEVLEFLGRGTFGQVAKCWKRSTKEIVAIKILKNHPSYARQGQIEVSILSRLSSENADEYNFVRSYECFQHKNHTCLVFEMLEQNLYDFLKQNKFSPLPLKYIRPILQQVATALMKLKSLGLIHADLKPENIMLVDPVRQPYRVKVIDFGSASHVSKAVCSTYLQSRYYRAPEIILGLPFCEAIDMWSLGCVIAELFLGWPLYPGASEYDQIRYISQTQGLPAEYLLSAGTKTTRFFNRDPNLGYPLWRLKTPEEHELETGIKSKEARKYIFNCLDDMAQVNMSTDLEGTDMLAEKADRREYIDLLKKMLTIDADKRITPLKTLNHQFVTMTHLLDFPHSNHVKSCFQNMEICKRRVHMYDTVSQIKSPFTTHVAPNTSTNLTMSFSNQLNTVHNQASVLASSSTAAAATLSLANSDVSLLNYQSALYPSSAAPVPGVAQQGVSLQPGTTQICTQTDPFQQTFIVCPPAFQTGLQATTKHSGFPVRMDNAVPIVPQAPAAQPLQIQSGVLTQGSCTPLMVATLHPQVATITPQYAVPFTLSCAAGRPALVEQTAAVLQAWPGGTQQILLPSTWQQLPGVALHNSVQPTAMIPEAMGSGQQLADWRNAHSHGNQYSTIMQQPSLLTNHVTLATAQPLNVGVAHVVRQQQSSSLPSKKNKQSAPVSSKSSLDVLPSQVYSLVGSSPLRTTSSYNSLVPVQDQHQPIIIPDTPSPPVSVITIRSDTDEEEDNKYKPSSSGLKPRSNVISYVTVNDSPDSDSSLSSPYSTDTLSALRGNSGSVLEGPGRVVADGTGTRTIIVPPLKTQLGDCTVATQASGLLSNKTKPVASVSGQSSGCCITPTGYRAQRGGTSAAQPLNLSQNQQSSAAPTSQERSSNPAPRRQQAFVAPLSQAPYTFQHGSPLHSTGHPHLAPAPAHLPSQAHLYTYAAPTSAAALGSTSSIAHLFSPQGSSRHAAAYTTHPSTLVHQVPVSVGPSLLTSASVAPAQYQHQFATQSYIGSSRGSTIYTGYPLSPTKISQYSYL

LATS2 (human) = LATS2 (human) (UniProt Q9NRM7); experiment: KINOMEscan competition binding; conditions: compound 10.0 µM
MAP2K3 (human) = MAP2K3 (human) (UniProt P46734); experiment: KINOMEscan competition binding; conditions: compound 10.0 µM
MAP2K3 (human), sequence (P46734 whole entry, looked up): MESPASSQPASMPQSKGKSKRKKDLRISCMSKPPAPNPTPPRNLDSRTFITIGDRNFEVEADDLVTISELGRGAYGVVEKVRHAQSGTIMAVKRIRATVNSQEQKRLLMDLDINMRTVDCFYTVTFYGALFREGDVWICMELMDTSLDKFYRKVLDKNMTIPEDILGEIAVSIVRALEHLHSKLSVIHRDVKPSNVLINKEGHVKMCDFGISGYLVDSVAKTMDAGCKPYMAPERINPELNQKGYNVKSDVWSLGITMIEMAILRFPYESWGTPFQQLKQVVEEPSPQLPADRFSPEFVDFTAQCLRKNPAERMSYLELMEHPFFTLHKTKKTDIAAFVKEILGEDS

MAP4K4 (human) = MAP4K4 (human) (UniProt O95819); experiment: KINOMEscan competition binding; conditions: compound 10.0 µM
MINK1 (human) = MINK1 (human) (UniProt Q8N4C8); experiment: KINOMEscan competition binding; conditions: compound 10.0 µM
PIK3CA (human) = PIK3CA (human) (UniProt P42336); experiment: KINOMEscan competition binding; conditions: compound 10.0 µM
[1] = tested on: PIK3CA (human), P42336 [E545K]; experiment: KINOMEscan competition binding; conditions: compound 10.0 µM
PIK3CB (human) = PIK3CB (human) (UniProt P42338); experiment: KINOMEscan competition binding; conditions: compound 10.0 µM
PIK3CD (human) = PIK3CD (human) (UniProt O00329); experiment: KINOMEscan competition binding; conditions: compound 10.0 µM
PIK3CG (human) = PIK3CG (human) (UniProt P48736); experiment: KINOMEscan competition binding; conditions: compound 10.0 µM
PIM1 (human) [2] = biological target: PIM1 (human) (UniProt P11309); experiment: KINOMEscan competition binding; conditions: compound 10.0 µM
PIM2 (human) [3] = biological target: PIM2 (human) (UniProt Q9P1W9); experiment: KINOMEscan competition binding; conditions: compound 10.0 µM
PIM2 (human), sequence (Q9P1W9 whole entry, looked up): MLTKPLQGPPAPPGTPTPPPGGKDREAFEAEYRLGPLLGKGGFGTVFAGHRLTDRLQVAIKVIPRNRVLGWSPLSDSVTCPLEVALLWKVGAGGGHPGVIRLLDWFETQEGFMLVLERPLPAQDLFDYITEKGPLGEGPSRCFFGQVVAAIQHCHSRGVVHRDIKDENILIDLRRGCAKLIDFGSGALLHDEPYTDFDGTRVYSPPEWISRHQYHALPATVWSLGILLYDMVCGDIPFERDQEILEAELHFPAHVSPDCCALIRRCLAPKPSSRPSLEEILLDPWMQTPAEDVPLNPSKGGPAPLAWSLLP

PIM3 (human) = PIM3 (human) (UniProt Q86V86); experiment: KINOMEscan competition binding; conditions: compound 10.0 µM
PLK4 (human) = PLK4 (human) (UniProt O00444); experiment: KINOMEscan competition binding; conditions: compound 10.0 µM
PLK4 (human), sequence (O00444 whole entry, looked up): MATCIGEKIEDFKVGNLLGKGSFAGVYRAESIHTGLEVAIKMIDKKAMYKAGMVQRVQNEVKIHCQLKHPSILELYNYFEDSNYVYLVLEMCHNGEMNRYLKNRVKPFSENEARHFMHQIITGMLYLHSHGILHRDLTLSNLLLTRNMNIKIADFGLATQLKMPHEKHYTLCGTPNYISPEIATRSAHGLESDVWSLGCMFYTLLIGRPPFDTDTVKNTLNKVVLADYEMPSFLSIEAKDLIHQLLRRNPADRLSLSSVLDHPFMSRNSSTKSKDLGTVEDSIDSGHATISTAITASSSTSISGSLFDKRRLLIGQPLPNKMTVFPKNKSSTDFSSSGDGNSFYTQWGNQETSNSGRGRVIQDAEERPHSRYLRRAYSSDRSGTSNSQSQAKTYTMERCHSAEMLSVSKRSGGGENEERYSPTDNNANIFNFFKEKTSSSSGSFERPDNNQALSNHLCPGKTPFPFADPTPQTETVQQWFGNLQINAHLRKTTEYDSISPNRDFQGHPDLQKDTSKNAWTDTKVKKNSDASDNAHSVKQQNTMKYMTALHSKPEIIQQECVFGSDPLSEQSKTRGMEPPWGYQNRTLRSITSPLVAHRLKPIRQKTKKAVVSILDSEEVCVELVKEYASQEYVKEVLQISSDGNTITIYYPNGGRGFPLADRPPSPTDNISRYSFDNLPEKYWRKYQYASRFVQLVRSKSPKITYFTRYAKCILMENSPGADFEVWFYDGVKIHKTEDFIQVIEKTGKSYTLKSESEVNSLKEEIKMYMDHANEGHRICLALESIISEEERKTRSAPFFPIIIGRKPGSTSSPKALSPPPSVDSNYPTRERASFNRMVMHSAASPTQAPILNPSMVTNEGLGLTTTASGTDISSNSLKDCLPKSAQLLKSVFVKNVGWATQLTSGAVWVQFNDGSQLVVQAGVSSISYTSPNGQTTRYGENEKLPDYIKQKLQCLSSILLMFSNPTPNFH

RPS6KA4 KD2 (human) = RPS6KA4 KD2 (human) (UniProt O75676); experiment: KINOMEscan competition binding; conditions: compound 10.0 µM
RPS6KA4 KD2 (human), sequence (O75676 whole entry, looked up): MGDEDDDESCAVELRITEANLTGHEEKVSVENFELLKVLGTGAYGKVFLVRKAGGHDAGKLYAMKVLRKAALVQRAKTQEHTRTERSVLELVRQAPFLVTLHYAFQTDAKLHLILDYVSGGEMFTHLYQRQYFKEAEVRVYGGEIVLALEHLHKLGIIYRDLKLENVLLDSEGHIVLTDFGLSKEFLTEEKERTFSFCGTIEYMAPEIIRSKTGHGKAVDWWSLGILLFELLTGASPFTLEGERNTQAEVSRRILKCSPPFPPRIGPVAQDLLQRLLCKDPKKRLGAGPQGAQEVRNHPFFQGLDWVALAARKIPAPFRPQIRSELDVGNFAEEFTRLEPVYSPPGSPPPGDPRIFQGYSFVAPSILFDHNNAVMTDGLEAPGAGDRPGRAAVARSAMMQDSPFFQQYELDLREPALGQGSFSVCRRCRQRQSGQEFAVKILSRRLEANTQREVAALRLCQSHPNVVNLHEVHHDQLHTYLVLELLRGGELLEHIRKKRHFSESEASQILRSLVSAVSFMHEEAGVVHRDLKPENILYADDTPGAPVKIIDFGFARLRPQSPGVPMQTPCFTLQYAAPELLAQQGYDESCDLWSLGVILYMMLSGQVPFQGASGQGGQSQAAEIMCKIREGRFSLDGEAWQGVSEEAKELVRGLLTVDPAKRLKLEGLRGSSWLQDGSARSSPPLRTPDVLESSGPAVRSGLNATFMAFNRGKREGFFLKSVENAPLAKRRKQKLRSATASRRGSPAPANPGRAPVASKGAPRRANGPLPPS

STK17B (human) = STK17B (human) (UniProt O94768); experiment: KINOMEscan competition binding; conditions: compound 10.0 µM
TAOK1 (human) = TAOK1 (human) (UniProt Q7L7X3); experiment: KINOMEscan competition binding; conditions: compound 10.0 µM
PIM1 (human) [4] = biological target: PIM1 (human) (UniProt P11309); experiment: SelectScreen, TR FRET
PIM2 (human) [5] = biological target: PIM2 (human) (UniProt Q9P1W9); experiment: SelectScreen, TR FRET
GAK (human) = GAK (human) (UniProt O14976); experiment: KINOMEscan competition binding; conditions: compound 10.0 µM
PLK1 (human) = PLK1 (human) (UniProt P53350); experiment: KINOMEscan competition binding; conditions: compound 10.0 µM
PLK3 (human) = PLK3 (human) (UniProt Q9H4B4); experiment: KINOMEscan competition binding; conditions: compound 10.0 µM
PTK2 (human) = PTK2 (human) (UniProt Q05397); experiment: KINOMEscan competition binding; conditions: compound 10.0 µM
RAF1 (human) = RAF1 (human) (UniProt P04049); experiment: KINOMEscan competition binding; conditions: compound 10.0 µM
STK33 (human) = STK33 (human) (UniProt Q9BYT3); experiment: KINOMEscan competition binding; conditions: compound 10.0 µM
TTK (human) [6] = biological target: TTK (human) (UniProt P33981); experiment: KINOMEscan competition binding; conditions: for kinase still bound, per cent of control: compound 10.0 µM
TTK (human), sequence (P33981 whole entry, looked up): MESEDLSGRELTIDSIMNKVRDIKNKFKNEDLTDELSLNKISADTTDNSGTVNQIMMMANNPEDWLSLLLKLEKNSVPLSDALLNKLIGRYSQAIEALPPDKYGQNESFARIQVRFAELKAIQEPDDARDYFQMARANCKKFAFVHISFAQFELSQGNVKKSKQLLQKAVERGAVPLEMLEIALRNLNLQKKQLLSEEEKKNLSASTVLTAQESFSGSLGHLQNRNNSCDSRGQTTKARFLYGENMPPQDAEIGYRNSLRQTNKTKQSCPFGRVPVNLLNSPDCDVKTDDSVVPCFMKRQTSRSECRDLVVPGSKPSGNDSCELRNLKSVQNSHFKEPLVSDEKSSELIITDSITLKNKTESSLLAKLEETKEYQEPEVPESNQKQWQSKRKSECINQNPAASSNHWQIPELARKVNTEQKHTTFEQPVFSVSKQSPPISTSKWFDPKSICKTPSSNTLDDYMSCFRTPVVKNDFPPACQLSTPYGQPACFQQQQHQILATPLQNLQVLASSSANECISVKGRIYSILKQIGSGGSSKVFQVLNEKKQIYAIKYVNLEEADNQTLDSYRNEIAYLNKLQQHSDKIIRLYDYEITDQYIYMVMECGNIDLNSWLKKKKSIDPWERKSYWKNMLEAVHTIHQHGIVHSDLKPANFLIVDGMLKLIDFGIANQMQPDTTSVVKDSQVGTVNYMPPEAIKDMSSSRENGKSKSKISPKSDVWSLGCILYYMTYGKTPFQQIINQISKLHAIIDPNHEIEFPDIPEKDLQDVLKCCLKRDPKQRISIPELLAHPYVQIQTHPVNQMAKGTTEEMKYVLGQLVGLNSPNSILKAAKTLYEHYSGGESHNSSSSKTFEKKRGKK

TTK (human) [7] = biological target: TTK (human) (UniProt P33981); experiment: SelectScreen, TR FRET
AAK1 (human) = AAK1 (human) (UniProt Q2M2I8); experiment: KINOMEscan competition binding; conditions: compound 10.0 µM
MAPK12 (human) = MAPK12 (human) (UniProt P53778); experiment: KINOMEscan competition binding; conditions: compound 10.0 µM
PIK3C2B (human) = PIK3C2B (human) (UniProt O00750); experiment: KINOMEscan competition binding; conditions: compound 10.0 µM
CLK2 (human) = CLK2 (human) (UniProt P49760); experiment: KINOMEscan competition binding; conditions: compound 10.0 µM
CSK (human) = CSK (human) (UniProt P41240); experiment: KINOMEscan competition binding; conditions: compound 10.0 µM
MAPK10 (human) = MAPK10 (human) (UniProt P53779); experiment: KINOMEscan competition binding; conditions: compound 10.0 µM
MAPK14 (human) = MAPK14 (human) (UniProt Q16539); experiment: KINOMEscan competition binding; conditions: compound 10.0 µM
MAPK15 (human) = MAPK15 (human) (UniProt Q8TD08); experiment: KINOMEscan competition binding; conditions: compound 10.0 µM
MAPK8 (human) = MAPK8 (human) (UniProt P45983); experiment: KINOMEscan competition binding; conditions: compound 10.0 µM
MAPK9 (human) = MAPK9 (human) (UniProt P45984); experiment: KINOMEscan competition binding; conditions: compound 10.0 µM
MYLK4 (human) = MYLK4 (human) (UniProt Q86YV6); experiment: KINOMEscan competition binding; conditions: compound 10.0 µM
RPS6KA1 KD2 (human) = RPS6KA1 KD2 (human) (UniProt Q15418); experiment: KINOMEscan competition binding; conditions: compound 10.0 µM
TLK2 (human) = TLK2 (human) (UniProt Q86UE8); experiment: KINOMEscan competition binding; conditions: compound 10.0 µM
MYLK (human) = MYLK (human) (UniProt Q15746); experiment: KINOMEscan competition binding; conditions: compound 10.0 µM
RPS6KA2 KD2 (human) = RPS6KA2 KD2 (human) (UniProt Q15349); experiment: KINOMEscan competition binding; conditions: compound 10.0 µM

CDK16 (human), sequence (Q00536 whole entry, looked up): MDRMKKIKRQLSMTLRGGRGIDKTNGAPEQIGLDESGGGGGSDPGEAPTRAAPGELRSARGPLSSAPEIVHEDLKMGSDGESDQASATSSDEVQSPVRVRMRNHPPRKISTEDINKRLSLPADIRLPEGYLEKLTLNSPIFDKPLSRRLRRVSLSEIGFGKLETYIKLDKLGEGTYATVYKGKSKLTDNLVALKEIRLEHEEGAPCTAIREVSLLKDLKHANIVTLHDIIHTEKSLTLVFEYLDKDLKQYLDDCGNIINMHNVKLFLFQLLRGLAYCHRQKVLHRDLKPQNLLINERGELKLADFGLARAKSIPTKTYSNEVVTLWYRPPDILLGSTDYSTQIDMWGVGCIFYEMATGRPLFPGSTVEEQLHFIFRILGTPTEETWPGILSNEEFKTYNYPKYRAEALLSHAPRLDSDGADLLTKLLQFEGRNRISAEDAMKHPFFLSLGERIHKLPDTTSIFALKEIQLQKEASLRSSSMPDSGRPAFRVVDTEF

| Compound | kinase still bound, per cent of control (BTK (human)) [%] | kinase still bound, per cent of control (CDK16 (human)) [%] | kinase still bound, per cent of control (CDK7 (human)) [%] | kinase still bound, per cent of control (CSNK2A1 (human)) [%] | kinase still bound, per cent of control (CSNK2A2 (human)) [%] | kinase still bound, per cent of control (DAPK1 (human)) [%] | kinase still bound, per cent of control (DAPK2 (human)) [%] | kinase still bound, per cent of control (DAPK3 (human)) [%] | kinase still bound, per cent of control (HIPK1 (human)) [%] | kinase still bound, per cent of control (LATS2 (human)) [%] | kinase still bound, per cent of control (MAP2K3 (human)) [%] | kinase still bound, per cent of control (PIM1 (human) [2]) [%] | kinase still bound, per cent of control (PIM2 (human) [3]) [%] | kinase still bound, per cent of control (PIM3 (human)) [%] | kinase still bound, per cent of control (PLK4 (human)) [%] | kinase still bound, per cent of control (RPS6KA4 KD2 (human)) [%] | kinase still bound, per cent of control (TAOK1 (human)) [%] | IC50 (PIM1 (human) [4]) [nM] | IC50 (PIM2 (human) [5]) [nM] | kinase still bound, per cent of control (TTK (human) [6]) [%] | also measured |
| --- | --- | --- | --- | --- | --- | --- | --- | --- | --- | --- | --- | --- | --- | --- | --- | --- | --- | --- | --- | --- | --- |
| COc1cc(N(C)CCO)ccc1Nc1ncc2c(n1)N(C1CCCC1)CCC(=O)N2C | – | – | – | – | – | – | – | – | – | – | – | – | – | – | 14 | – | – | – | – | 2.2 | kinase still bound, per cent of control (GAK (human)): 2.4%; kinase still bound, per cent of control (PLK1 (human)): 7.4%; kinase still bound, per cent of control (PLK3 (human)): 0%; kinase still bound, per cent of control (PTK2 (human)): 17%; kinase still bound, per cent of control (RAF1 (human)): 0%; kinase still bound, per cent of control (STK33 (human)): 17%; Kd (TTK (human) [6]): 157 nM; IC50 (TTK (human) [7]): 1370 nM |
| CN(C)C1=NC(=O)/C(=C/c2ccc(-c3ccc(S(N)(=O)=O)cc3)o2)S1 | – | 0.45 | 22 | – | – | – | – | – | 4.3 | – | 16 | 3.5 | 3.4 | 2.9 | 0.7 | – | 9.2 | 1890 | 6450 | 9 | kinase still bound, per cent of control (CLK2 (human)): 33%; kinase still bound, per cent of control (CSK (human)): 31%; kinase still bound, per cent of control (MAPK10 (human)): 22%; kinase still bound, per cent of control (MAPK12 (human)): 33%; kinase still bound, per cent of control (MAPK14 (human)): 21%; kinase still bound, per cent of control (MAPK15 (human)): 19%; kinase still bound, per cent of control (MAPK8 (human)): 33%; kinase still bound, per cent of control (MAPK9 (human)): 8.1%; kinase still bound, per cent of control (MYLK4 (human)): 24%; kinase still bound, per cent of control (RPS6KA1 KD2 (human)): 31%; kinase still bound, per cent of control (TLK2 (human)): 33% |

Continued, in another order:

| kinase still bound, per cent of control (BTK (human)) [%] | kinase still bound, per cent of control (CDK16 (human)) [%] | kinase still bound, per cent of control (CDK7 (human)) [%] | kinase still bound, per cent of control (CSNK2A1 (human)) [%] | kinase still bound, per cent of control (CSNK2A2 (human)) [%] | kinase still bound, per cent of control (DAPK1 (human)) [%] | kinase still bound, per cent of control (DAPK2 (human)) [%] | kinase still bound, per cent of control (DAPK3 (human)) [%] | kinase still bound, per cent of control (HIPK1 (human)) [%] | kinase still bound, per cent of control (LATS2 (human)) [%] | kinase still bound, per cent of control (MAP2K3 (human)) [%] | kinase still bound, per cent of control (PIM1 (human) [2]) [%] | kinase still bound, per cent of control (PIM2 (human) [3]) [%] | kinase still bound, per cent of control (PIM3 (human)) [%] | kinase still bound, per cent of control (PLK4 (human)) [%] | kinase still bound, per cent of control (RPS6KA4 KD2 (human)) [%] | kinase still bound, per cent of control (TAOK1 (human)) [%] | IC50 (PIM1 (human) [4]) [nM] | IC50 (PIM2 (human) [5]) [nM] | kinase still bound, per cent of control (TTK (human) [6]) [%] | Compound | also measured |
| --- | --- | --- | --- | --- | --- | --- | --- | --- | --- | --- | --- | --- | --- | --- | --- | --- | --- | --- | --- | --- | --- |
| 17 | 9.3 | 29 | 15 | 21 | 2.3 | 3.4 | 8 | 3.4 | 21 | 33 | 2.4 | 3.3 | 2.8 | 4.7 | 18 | 12 | 293 | 165 | – | CS(=O)C1=NC(=O)/C(=C/c2ccc(-c3ccc(S(N)(=O)=O)cc3)o2)S1 (configuration not stated) | kinase still bound, per cent of control (MAP4K4 (human)): 18%; kinase still bound, per cent of control (MINK1 (human)): 32%; kinase still bound, per cent of control (PIK3CA (human)): 12%; kinase still bound, per cent of control [1]: 17%; kinase still bound, per cent of control (PIK3CB (human)): 31%; kinase still bound, per cent of control (PIK3CD (human)): 30%; kinase still bound, per cent of control (PIK3CG (human)): 10%; kinase still bound, per cent of control (STK17B (human)): 5.2% |
| 30 | 19 | 27 | 18 | 7.9 | 6 | 6.4 | 11 | 2.4 | 8.1 | 34 | 4 | 0.9 | 4.9 | 21 | 9.9 | 9.6 | 215 | 125 | – | NS(=O)(=O)c1ccc(-c2ccc(/C=C3\SC(=O)NC3=O)o2)cc1 | kinase still bound, per cent of control (AAK1 (human)): 34%; kinase still bound, per cent of control (MAPK12 (human)): 28%; kinase still bound, per cent of control (MINK1 (human)): 1.8%; kinase still bound, per cent of control (PIK3C2B (human)): 18%; kinase still bound, per cent of control (PIK3CA (human)): 15%; kinase still bound, per cent of control [1]: 20%; kinase still bound, per cent of control (PIK3CB (human)): 31%; kinase still bound, per cent of control (PIK3CD (human)): 32%; kinase still bound, per cent of control (PIK3CG (human)): 3.6%; kinase still bound, per cent of control (STK17B (human)): 9% |
| – | – | – | – | – | – | – | – | – | – | – | – | – | – | – | 1.9 | – | – | – | 7.4 | CCN(CC)C1CCN(c2ccc(Nc3ncc4c(n3)N3CCCC3C=CN4C)c(OC(C)C)c2)CC1 (configuration not stated) | kinase still bound, per cent of control (GAK (human)): 27%; kinase still bound, per cent of control (MYLK (human)): 25%; kinase still bound, per cent of control (PLK1 (human)): 4.4%; kinase still bound, per cent of control (PLK3 (human)): 5.8%; kinase still bound, per cent of control (RAF1 (human)): 0%; kinase still bound, per cent of control (RPS6KA2 KD2 (human)): 32% |
